SMILES strings stand for the structures.

This note sets out measurements from patent US9808003B2, “Herbicidally active 2-(substituted-phenyl)-cyclopentane-1,3-dione compounds and derivatives thereof” (Syngenta Limited, priority 2013, dated 2017).

Holding throughout (test): Test 1A glasshouse assay, post-emergence herbicidal activity
What all share (assay type): in vivo

In assay [1] the test system is Echinochloa crus-galli (ECHCG). The following applies: Echinochloa crus-galli, 312 h, application rate 250 g/ha, 13 days after application, visual (100%=total damage; 0%=no damage), read-out: Post-emergence Herbicidal Activity (% Phytotoxicity) ECHCG. In short, it runs like this:
(§1)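 Test species were sown in pots of standard soil and cultivated for 8 days at 24/16 °C (day/night) with 14 h light and 65% humidity. Plants were next sprayed with the formulated active ingredient (acetone/water 50:50, 0.5% Tween 20). Damage was rated visually as % phytotoxicity 13 days later.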

The test system of a further assay is Avena fatua (AVEFA). Particulars: Avena fatua, 312 h, application rate 250 g/ha, 13 days after application, visual (100%=total damage; 0%=no damage), read-out: Post-emergence Herbicidal Activity (% Phytotoxicity) AVEFA. The method, boiled down: as §1
Assay [2] has as its system Alopecurus myosuroides (ALOMY). Particulars: application rate 250 g/ha, 13 days after application, visual (100%=total damage; 0%=no damage); for pest or weed control at 250 g/ha: Alopecurus myosuroides, 312 h, read-out: Post-emergence Herbicidal Activity (% Phytotoxicity) ALOMY. The method, boiled down:
as §1

Another assay deals with Lolium perenne (LOLPE). Particulars: Lolium perenne, 312 h, application rate 250 g/ha, 13 days after application, visual (100%=total damage; 0%=no damage), read-out: Post-emergence Herbicidal Activity (% Phytotoxicity) LOLPE. The method, boiled down: as §1

For the molecule `Cc1cc(-n2cc(Cl)cn2)cc(C)c1C1C(=O)CC(CCNC(=O)c2nc(Cl)ccc2Br)C1=O` (stereo not drawn) [Compound A140], the pest or weed control at 250 g/ha stood at 100% in assay [1], 100% in the assay on Avena fatua (AVEFA), 90% in assay [2] and 100% in the assay on Lolium perenne (LOLPE).
Turning to `C#CCOc1cc(C)c(C2C(=O)CC(CCNC(=O)c3ccccn3)C2=O)c(C)c1` (stereo not drawn) [Compound A141A], the pest or weed control at 250 g/ha came out at 80% in assay [1], 80% with Avena fatua (AVEFA), 80% in assay [2] and 70% in the assay with Lolium perenne (LOLPE).
In the case of `Cc1cc(-n2cc(Cl)cn2)cc(C)c1C1C(=O)CC(CCNC(=O)c2cc(Cl)cc(Cl)n2)C1=O` (stereo not drawn) [Compound A141], the pest or weed control at 250 g/ha in assay [1] came to 100%; with Avena fatua (AVEFA) it was 10%; in assay [2], 60%; with Lolium perenne (LOLPE), 70%.
In the case of `Cc1cc(-n2cc(C#N)cn2)cc(C)c1C1C(=O)CC(CCNC(=O)c2ccccn2)C1=O` (stereo not drawn) [Compound A142, N-[2-[3-[4-(4-cyanopyrazol-1-yl)-2,6-dimethyl-phenyl]-2,4-dioxo-cyclopentyl]ethyl]pyridine-2-carboxamide], the pest or weed control at 250 g/ha in assay [1] is 100%; in the assay on Avena fatua (AVEFA), 90%; in assay [2], 100%; in the assay with Lolium perenne (LOLPE) it was 100%.
As to `Cc1cc(C)c(C2C(=O)CC(CCNC(=O)c3nc(Cl)sc3C)C2=O)c(C)c1` (stereo not drawn) [Compound A143], the pest or weed control at 250 g/ha in assay [1] came to 100%; with Avena fatua (AVEFA), 90%; in assay [2], 90%; with Lolium perenne (LOLPE), 100%.
On to `Cc1cc(Cl)c(C2C(=O)CC(CCNC(=O)c3ncccc3F)C2=O)c(Cl)c1` (stereo not drawn) [Compound A144], for which the pest or weed control at 250 g/ha in assay [1] was found to be 100%; in the assay with Avena fatua (AVEFA), 90%; in assay [2] it was 30%; with Lolium perenne (LOLPE), 90%.
With `Cc1cc(C)c(C2C(=O)CC(CCNC(=O)c3cc(Cl)cc(Cl)n3)C2=O)c(C)c1` (stereo not drawn) [Compound A146], the pest or weed control at 250 g/ha in assay [1] amounted to 100%; with Avena fatua (AVEFA) it was 40%; in assay [2], 60%; in the assay with Lolium perenne (LOLPE), 70%.
The like results for `Cc1cc(C)c(C2C(=O)CC(CCNC(=O)c3cccc(C#N)n3)C2=O)c(C)c1` (stereo not drawn) [Compound A147] were, in that order, 60%, 60%, 60% and 70%.
The like results for `Cc1cc(C)c(C2C(=O)CC(CCNC(=O)c3cc(C#N)ccn3)C2=O)c(C)c1` (stereo not drawn) [Compound A148] were, in that order, 90%, 90%, 70% and 90%.
The like results for `Cc1cc(C)c(C2C(=O)CC(CCNC(=O)c3nc(F)ccc3Br)C2=O)c(C)c1` (stereo not drawn) [Compound A149] were, in that order, 100%, 100%, 100% and 100%.
Turning to `Cc1cc(C)c(C2C(=O)CC(CCNC(=O)c3ncc(C#N)cc3Cl)C2=O)c(C)c1` (stereo not drawn) [Compound A150], the pest or weed control at 250 g/ha in assay [1] was 80%; in the assay on Avena fatua (AVEFA) it was 90%; in assay [2], 70%; with Lolium perenne (LOLPE) it was 80%.
In the case of `Cc1cc(C)c(C2C(=O)CC(CCNC(=O)c3cccnc3F)C2=O)c(C)c1` (stereo not drawn) [Compound A151], the pest or weed control at 250 g/ha (in assay [1]; in the assay with Avena fatua (AVEFA); in assay [2]; in the assay with Lolium perenne (LOLPE)) was 90% in each case.
In the case of `Cc1cc(C)c(C2C(=O)CC(CCNC(=O)c3cccnc3C(F)(F)F)C2=O)c(C)c1` (stereo not drawn) [Compound A152], the pest or weed control at 250 g/ha in assay [1] came out at 80%; in the assay on Avena fatua (AVEFA), 70%; in assay [2], 80%; in the assay on Lolium perenne (LOLPE), 70%.
For `Cc1cc(-n2cc(Cl)cn2)cc(C)c1C1C(=O)CC(CCNC(=O)c2cc(Br)ccn2)C1=O` (stereo not drawn) [Compound A154], the pest or weed control at 250 g/ha (in assay [1]; in the assay with Avena fatua (AVEFA); in assay [2]; in the assay on Lolium perenne (LOLPE)) was 100% in each case.
On to `Cc1cc(-n2cc(Cl)cn2)cc(C)c1C1C(=O)CC(CCNC(=O)c2ccc(Cl)cn2)C1=O` (stereo not drawn) [Compound A155], for which the pest or weed control at 250 g/ha (in assay [1]; with Avena fatua (AVEFA); in assay [2]; in the assay with Lolium perenne (LOLPE)) was 100% in each case.
Regarding `Cc1ccnc(C(=O)NCCC2CC(=O)C(c3c(C)cc(-n4cc(Cl)cn4)cc3C)C2=O)c1` (stereo not drawn) [Compound A156], the pest or weed control at 250 g/ha in assay [1] is 100%; in the assay on Avena fatua (AVEFA) it was 90%; in assay [2], 50%; in the assay with Lolium perenne (LOLPE), 90%.
On to `Cc1cc(C)c(C2C(=O)CC(CCNC(=O)c3cncc(Cl)c3)C2=O)c(C)c1` (stereo not drawn) [Compound A157], for which the pest or weed control at 250 g/ha was 90% in assay [1], 70% in the assay on Avena fatua (AVEFA), 70% in assay [2] and 70% in the assay with Lolium perenne (LOLPE).
As to `Cc1cc(C)c(C2C(=O)CC(CCNC(=O)c3ccc(F)nc3)C2=O)c(C)c1` (stereo not drawn) [Compound A158], the pest or weed control at 250 g/ha in assay [1] is 70%; in the assay on Avena fatua (AVEFA) it was 90%; in assay [2] it was 80%; with Lolium perenne (LOLPE), 80%.
With `Cc1cc(C)c(C2C(=O)CC(CCNC(=O)c3nn(C)c(Cl)c3C)C2=O)c(C)c1` (stereo not drawn) [Compound A160], the pest or weed control at 250 g/ha in assay [1] stood at 100%; in the assay on Avena fatua (AVEFA), 100%; in assay [2], 90%; in the assay on Lolium perenne (LOLPE), 90%.
As to `Cc1cc(C)c(C2C(=O)CC(CCNC(=O)c3c(Cl)c(C(F)(F)F)nn3C)C2=O)c(C)c1` (stereo not drawn) [Compound A161], the pest or weed control at 250 g/ha was determined as 100% in assay [1], 100% with Avena fatua (AVEFA), 90% in assay [2] and 100% in the assay on Lolium perenne (LOLPE).
As to `Cc1cc(C)c(C2C(=O)CC(CCNC(=O)c3cc(C4CC4)on3)C2=O)c(C)c1` (stereo not drawn) [Compound A162], the pest or weed control at 250 g/ha in assay [1] was found to be 90%; in the assay on Avena fatua (AVEFA) it was 90%; in assay [2], 70%; in the assay with Lolium perenne (LOLPE) it was 100%.
As for `Cc1cc(C)c(C2C(=O)CC(CCNC(=O)c3nnsc3C)C2=O)c(C)c1` (stereo not drawn) [Compound A164], the pest or weed control at 250 g/ha stood at 100% in assay [1], 100% in the assay with Avena fatua (AVEFA), 90% in assay [2] and 90% with Lolium perenne (LOLPE).
As to `O=C(NCCC1CC(=O)C(c2c(Cl)cc(-c3ccc(F)cc3)cc2Cl)C1=O)c1cccc(F)n1` (stereo not drawn) [Compound A165], the pest or weed control at 250 g/ha in assay [1] was determined as 100%; with Avena fatua (AVEFA), 100%; in assay [2], 90%; with Lolium perenne (LOLPE), 100%.
Take `Cc1cc(C)c(C2C(=O)CC(CCNC(=O)c3ccc(F)nc3F)C2=O)c(C)c1` (stereo not drawn) [Compound A166]: the pest or weed control at 250 g/ha in assay [1] was 60%; in the assay on Avena fatua (AVEFA), 90%; in assay [2], 80%; in the assay with Lolium perenne (LOLPE), 90%.
`Cc1cc(C)c(C2C(=O)CC(CCNC(=O)c3ccc(C)nc3Cl)C2=O)c(C)c1` (stereo not drawn) [Compound A167]: the pest or weed control at 250 g/ha is 90% in assay [1], 30% in the assay on Avena fatua (AVEFA), 60% in assay [2] and 70% with Lolium perenne (LOLPE).
The matching figures for `Cc1cc(C)c(C2C(=O)CC(CCNC(=O)c3cccnc3Br)C2=O)c(C)c1` (stereo not drawn) [Compound A168]: 80%, 80%, 60% and 70%.
Regarding `Cc1cc(-n2cc(Cl)nn2)cc(C)c1C1C(=O)CC(CCNC(=O)c2ccccn2)C1=O` (stereo not drawn) [Compound A170, N-[2-[3-[4-(4-chlorotriazol-1-yl)-2,6-dimethyl-phenyl]-2,4-dioxo-cyclopentyl]ethyl]pyridine-2-carboxamide], the pest or weed control at 250 g/ha was found to be 100% in assay [1], 100% in the assay on Avena fatua (AVEFA), 90% in assay [2] and 90% in the assay on Lolium perenne (LOLPE). Moreover, the “Post-emergence Herbicidal Activity (% Phytotoxicity) ALOMY” value in assay [2] is reported as 90%.
Take `Cc1cc(-n2ccnn2)cc(C)c1C1C(=O)CC(CCNC(=O)c2ccccn2)C1=O` (stereo not drawn) [Compound A171]: the pest or weed control at 250 g/ha came to 60% in assay [1], 10% in the assay with Avena fatua (AVEFA), 0% in assay [2] and 10% in the assay with Lolium perenne (LOLPE).
With `Cc1cc(C)c(C2C(=O)CC(CCNC(=O)c3sc(C(F)(F)F)nc3C(F)(F)F)C2=O)c(C)c1` (stereo not drawn) [Compound A172], the pest or weed control at 250 g/ha in assay [1] was 100%; with Avena fatua (AVEFA) it was 90%; in assay [2], 90%; in the assay with Lolium perenne (LOLPE), 100%.
